From patent US12458605B2, “Lipid nanoparticle” (National University Corporation Hokkaido University, priority 2020, dated 2025)

Columns and labels:
[1] = Average particle size (ζ-Average) and PDI by dynamic light scattering (Zetasizer Nano ZSP); format: physicochemical
Experimental: The average particle size (ζ-Average) and PDI in PBS(−) of lipid nanoparticles were measured using “Zetasizer Nano ZSP”, an analyzer utilizing dynamic light scattering (manufactured by Malvern).
Measurement of average particle size and PDI of the lipid nanoparticles were carried out with the same method as the measurement of average particle size of mRNA-LNP.
The average particle size (ζ-Average) and PDI in PBS (−) of lipid nanoparticles were measured using “Zetasizer Nano ZSP”, an analyzer utilizing dynamic light scattering (manufactured by Malvern).

[2] = siRNA/mRNA encapsulation rate by Ribogreen reagent (section IV); format: physicochemical; conditions: for % mRNA encapsulation: FlucmRNA-loaded LNP, 50:10:38.5:1.5; for % siRNA encapsulation: F7siRNA-loaded LNP, 50:10:38.5:1.5, N/P ratio 6
Experimental: The encapsulation rates of siRNA and mRNA of lipid nanoparticles were measured with Ribogreen reagent. A solution diluted with TE buffer solution was arranged so that lipid nanoparticle concentration as nucleic acid concentration to be 8 μg/mL, as a solution for measuring nanoparticle surface nucleic acid concentration. In addition, a solution for measuring total nucleic acid concentration was arranged so that lipid nanoparticle concentration as nucleic acid concentration to be 1.2 μg/mL, which is 1% (w/w) concentration of X-triton100, by adding X-triton100. For 100 μL of each solution, 100 μL of Ribogreen (registered trademark) reagent (Quant-iT™ RiboGreen™ RNA Reagent, manufactured by Thermofisher Scientific) was mixed well in the wells of 96-well microplate (black, made of polystyrene, flat bottom, manufactured by Corning), and the fluorescence intensity at an excitation wavelength of 485 nm and a measurement wavelength of 528 nm was measured with a microplate reader. Nucleic acid concentration was calculated by calibration curve created by measuring the fluorescence intensity of nucleic acid solution containing 1% X-triton100 (nucleic acid concentration: 0-2.5 μg/mL) as same as aforementioned. Nucleic acid encapsulation rate of each lipid nanoparticle was calculated by the following formula: Encapsulation rate %=(nucleic acid concentration in solution for measuring total nucleic acid concentration (μg/mL)−nucleic acid concentration in solution for measuring nanoparticle surface nucleic acid concentration (μg/mL))/nucleic acid concentration in solution for measuring total nucleic acid concentration (μg/mL)×100. <Results>
The encapsulation rate of mRNA of lipid nanoparticles was measured using Ribogreen (manufactured by life technologies).

liver = assay: In vivo Fluc activity of FlucmRNA-loaded LNP by in vivo imaging, liver; conditions: Balb/c mice, 6 hours; for Fluc Activity in liver: FlucmRNA-loaded LNP i.v. 0.1 mg mRNA/kg
Experimental: (§1) Then, each prepared FlucmRNA-loaded lipid nanoparticles were administered to Balb/c mice (Charles River Laboratories Japan, Inc., 7 weeks old, female) and in vivo gene expression activity was examined. Specifically, each FlucmRNA-loaded lipid nanoparticles were intravenously administered to Balb/c mice at 0.1 mg mRNA/kg, and Fluc activities in the liver and spleen at 6 hours later were measured. Fluc activity was measured by in vivo imaging system (Perkin Elmer, IVIS200) after administration of VivoGlo Luciferin, In Vivo Grade (Promega, P1041) dissolved with PBS to 15 mg/mL, via tail vein at a dose of 1.5 mg per mouse. The unit of Fluc activity is the emission intensity per unit area (Avg Radiance [p/s/cm2/sr]) at the maximum emission wavelength of about 560 nm. The results of measurement of the Fluc activity (Avg Radiance [p/s/cm2/sr]) in the liver and spleen of mice administered each FlucmRNA-loaded lipid nanoparticles are shown in Tables 5-7.

spleen = assay: In vivo Fluc activity of FlucmRNA-loaded LNP by in vivo imaging, spleen; conditions: Balb/c mice, 6 hours; for Fluc activity in the spleen, compared with CL4F6: versus LNP comprising CL4F6 (Tables 5 and 6); for Fluc Activity in spleen: FlucmRNA-loaded LNP i.v. 0.1 mg mRNA/kg
Experimental: as §1

[3] = Storage stability of FlucmRNA-loaded LNP at −80, 5, 25 and 40° C.; format: physicochemical; conditions: for period for which quality remained good, −80° C.: maximum storage period 1 week; for quality at production (storage stability criteria): criteria: PDI 0.2 or less, encapsulation 80% or more
Experimental: Lipid nanoparticles were allowed to stand at each temperature of −80° C., 5° C., 25° C., and 40° C., and after keeping for each period of time, average particle size, PDI, and nucleic acid encapsulation rate were measured. Lipid nanoparticles which satisfy following all three conditions were defined that the quality was remained well: the average particle size is maintained within +/−20 nm based on the date of LNP preparation; PDI remains high uniformity with a value of 0.2 or less; and the nucleic acid encapsulation rate is also maintained at 80% or more. As a result of measuring average particle size, PDI, and nucleic acid encapsulation rate after each FlucmRNA-loaded lipid nanoparticle was allowed to stand at −80° C., 5° C., 25° C., and 40° C. respectively and kept for each period of time, periods of time defined as the quality of the lipid nanoparticles was remained well are shown in Tables 13 and 14. The lipid nanoparticles which remain in good quality with standing at 5° C. for one week or more can be evaluated as having excellent stability.

F7 = assay: In vivo F7 knockdown, plasma F7 enzyme activity (BIOPHEN FVII), Balb/c mice; conditions: i.v. 0.025 mg siRNA/kg, plasma at 24 hours, relative plasma F7 activity of MC3 LNP as 1
Experimental: Then, each prepared F7siRNA-loaded lipid nanoparticles were administered to Balb/c mice (Charles River Laboratories Japan, Inc., 5 weeks old, female) and in vivo F7 knockdown activity was examined. Specifically, BALB/c mice were intravenously administered F7siRNA-loaded lipid nanoparticles comprising the lipids described in Table 9 at 0.025 mg siRNA/kg and F7siRNA-loaded lipid nanoparticles comprising the lipids described in Tables 10 and 11 at 0.025 mg siRNA/kg, and the plasma F7 enzyme activity at 24 hours later was measured using BIOPHEN FVII (Biophen, A221304). Relative plasma F7 enzyme activity (%) of mice administered each F7siRNA-loaded lipid nanoparticles was calculated using plasma F7 enzyme activity of untreated mice as 100%. Furthermore, the ratio was calculated using the relative plasma F7 enzyme activity (%) of mice administered MC3-comprising F7siRNA-loaded lipid nanoparticles as 1. The results of measurement of CL4F6 derivative nanoparticles are shown in Tables 9 and 10, and results of measurement of CL15F6 derivative nanoparticles in Table 11.

[4] = FlucmRNA-loaded LNP, 50:10:38.5:1.5
[5] = FlucmRNA-loaded LNP, lipid:DSPC:cholesterol:DMG-PEG2K 50:10:38.5:1.5
[6] = F7siRNA-loaded LNP, 50:10:38.5:1.5, N/P ratio 6
[7] = 0.1 mg mRNA/kg, versus LNP comprising CL15F6 (Table 7)

Compound | PDI [1, 4] | ζ-Average (nm) [1, 5] | % mRNA encapsulation [2] | period for which quality remained good, −80° C. [3] | period for which quality remained good, 5° C. ([3]; maximum storage period 5 weeks) | period for which quality remained good, 25° C. ([3]; maximum storage period 5 weeks) | period for which quality remained good, 40° C. (weeks) ([3]; maximum storage period 5 weeks) | PDI [1, 6] | ζ-Average (nm) [1, 6] | % siRNA encapsulation [2] | period for which quality remained good, 40° C. ([3]; maximum storage period 5 weeks) | period for which quality remained good, 40° C. (days) ([3]; maximum storage period 5 weeks) | Fluc Activity in liver (liver) | Fluc activity in the spleen, compared with CL4F6 (spleen; 0.1 mg mRNA/kg) | Fluc Activity in spleen (spleen) | Fluc activity in the liver, compared with CL15F6 (liver; [7]) | Fluc activity in the spleen, compared with CL15F6 (spleen; [7]) | F7 enzyme activity (Ratio using MC3 as 1) (F7) | quality at production (storage stability criteria) [3]
CCCCCCCC(CCCC)C(=O)OCCCCCCC(O)(CCCCCCOC(=O)C(CCCC)CCCCCCC)CCCCN(CCC)CCC (centres unmarked) [CL4F 9-4] | 0.002 | 95.29 nm | 99.1% | 1 week | 5 weeks | 5 weeks | 1 week weeks |  |  |  |  |  | 2.55E+07 Avg Radiance [p/s/cm2/sr] | higher Fluc activity | 8.69E+06 Avg Radiance [p/s/cm2/sr] |  |  |  | 
CCCCCC(CCCC)C(=O)OCCCCCCC(O)(CCCCCCOC(=O)C(CCCC)CCCCC)CCCCN(CCC)CCC (centres unmarked) [CL4F 7-4] | 0.032 | 113.50 nm | 98.8% | 0 week | 5 weeks | 5 weeks | 1 week weeks |  |  |  |  |  | 5.05E+06 Avg Radiance [p/s/cm2/sr] | higher Fluc activity | 7.43E+06 Avg Radiance [p/s/cm2/sr] |  |  |  | 
CCCCC(CCCC)C(=O)OCCCCCCC(O)(CCCCCCOC(=O)C(CCCC)CCCC)CCCCN(CCC)CCC [CL4F 6-4] | 0.023 | 141.10 nm | 97.2% | 0 week | 5 weeks | 5 weeks |  |  |  |  | 3 days |  | 2.17E+05 Avg Radiance [p/s/cm2/sr] |  | 2.95E+05 Avg Radiance [p/s/cm2/sr] |  |  |  | 
CCCCCC(CCC)C(=O)OCCCCCCC(O)(CCCCCCOC(=O)C(CCC)CCCCC)CCCCN(CCC)CCC (centres unmarked) [CL4F 7-3] | 0.025 | 133.90 nm | 98.1% | 0 week | 5 weeks | 5 weeks |  |  |  |  |  | 0 day days | 3.43E+05 Avg Radiance [p/s/cm2/sr] |  | 6.64E+05 Avg Radiance [p/s/cm2/sr] |  |  |  | 

Now from value to compound, other results behind:

PDI [1, 4] | ζ-Average (nm) [1, 5] | % mRNA encapsulation [2] | period for which quality remained good, −80° C. [3] | period for which quality remained good, 5° C. ([3]; maximum storage period 5 weeks) | period for which quality remained good, 25° C. ([3]; maximum storage period 5 weeks) | period for which quality remained good, 40° C. (weeks) ([3]; maximum storage period 5 weeks) | PDI [1, 6] | ζ-Average (nm) [1, 6] | % siRNA encapsulation [2] | period for which quality remained good, 40° C. ([3]; maximum storage period 5 weeks) | period for which quality remained good, 40° C. (days) ([3]; maximum storage period 5 weeks) | Compound | Fluc Activity in liver (liver) | Fluc activity in the spleen, compared with CL4F6 (spleen; 0.1 mg mRNA/kg) | Fluc Activity in spleen (spleen) | Fluc activity in the liver, compared with CL15F6 (liver; [7]) | Fluc activity in the spleen, compared with CL15F6 (spleen; [7]) | F7 enzyme activity (Ratio using MC3 as 1) (F7) | quality at production (storage stability criteria) [3]
0.117 | 158.90 nm | 95.70% | 1 week | 5 weeks | 5 weeks | 5 weeks | 0.13 | 143.9 nm | 100.2% |  |  | CCCCCCCCCCCCC(CC)C(=O)OCCCCCCC(O)(CCCCCCOC(=O)C(CC)CCCCCCCCCCCC)CCCCOC(=O)C1CCN(C)CC1 (centres unmarked) [CL15F 14-2] | 1.03E+07 Avg Radiance [p/s/cm2/sr] |  | 7.58E+06 Avg Radiance [p/s/cm2/sr] | higher Fluc activity | higher Fluc activity | 1.82 | 
 |  |  | 1 week | 5 weeks | 5 weeks | 5 weeks |  |  |  |  |  | 7-hydroxy-7-(4-((1-methylpiperidine-4-carbonyl)oxy)butyl)tridecan-1,13-diyl bis(2-(4,4-dimethylpentan-2-yl)-5,7,7-trimethyloctanoate [CL15G6] |  |  |  |  |  |  | 
0.021 | 89.18 nm | 99.1% | 1 week | 5 weeks | 5 weeks | 5 weeks |  |  |  |  |  | CCCCCCCC(CCCCCC)C(=O)OCCCCCCC(O)(CCCCCCOC(=O)C(CCCCCC)CCCCCCC)CCCCN(CCC)CCC (centres unmarked) [CL4F 9-6] | 9.61E+07 Avg Radiance [p/s/cm2/sr] |  | 3.89E+06 Avg Radiance [p/s/cm2/sr] |  |  |  | 
0.225 | 158.30 nm | 86.2% |  |  |  |  |  |  |  |  |  | CCCCCCCCCCCCCCCC(=O)OCCCCCCC(O)(CCCCCCOC(=O)CCCCCCCCCCCCCCC)CCCCN(CCC)CCC [CL4F 16-0] | 2.32E+04 Avg Radiance [p/s/cm2/sr] |  | 2.83E+05 Avg Radiance [p/s/cm2/sr] |  |  |  | Does not meet the criteria for “good” at production
 |  |  |  |  |  |  | 0.534 | 390.7 nm | 100.4% |  |  | CCCCC(CC)C(=O)OCCCCCCC(O)(CCCCCCOC(=O)C(CC)CCCC)CCCCOC(=O)C1CCN(C)CC1 (centres unmarked) [CL15F 6-2] |  |  |  |  |  | 1.87 | Does not meet the criteria for “good” at production
